What was measured:
Format in all cases: in vivo
[1] = test system: Diabrotica balteata; experiment: Example B1: Diabrotica balteata (Corn Root Worm); conditions: 96 h, application rate of 200 ppm, sprayed maize sprouts, L2 larvae, 4 days after infestation, read-out: control in at least one of the two categories (mortality or growth inhibition)
Protocol: Example B1: Diabrotica balteata (Corn Root Worm)
Maize sprouts placed onto an agar layer in 24-well microtiter plates were treated with aqueous test solutions prepared from 10′000 ppm DMSO stock solutions by spraying. After drying, the plates were infested with L2 larvae (6 to 10 per well). The samples were assessed for mortality and growth inhibition in comparison to untreated samples 4 days after infestation.

[2] = test system: Chilo suppressalis; experiment: Example B4: Chilo suppressalis (Striped Rice Stemborer); conditions: 144 h, application rate of 200 ppm, artificial diet, L2 larvae, 6 days after infestation, read-out: control in at least one of the three categories (mortality, anti-feedant or growth inhibition)
Protocol: Example B4: Chilo suppressalis (Striped Rice Stemborer)
24-well microtiter plates with artificial diet were treated with aqueous test solutions prepared from 10′000 ppm DMSO stock solutions by pipetting. After drying, the plates were infested with L2 larvae (6-8 per well). The samples were assessed for mortality, anti-feeding effect, and growth inhibition in comparison to untreated samples 6 days after infestation. Control of Chilo suppressalis by a test sample is given when at least one of the categories mortality, anti-feedant effect, and growth inhibition is higher than the untreated sample.

[3] = test system: Plutella xylostella; experiment: Example B5: Plutella xylostella (Diamond Back Moth); conditions: 192 h, application rate of 200 ppm, 24-well artificial diet, eggs, 8 days after infestation, read-out: control in at least one of the two categories (mortality or growth inhibition)
Protocol: Example B5: Plutella xylostella (Diamond Back Moth)
24-well microtiter plates with artificial diet were treated with aqueous test solutions prepared from 10′000 ppm DMSO stock solutions by pipetting. After drying, Plutella eggs were pipetted through a plastic stencil onto a gel blotting paper and the plate was closed with it. The samples were assessed for mortality and growth inhibition in comparison to untreated samples 8 days after infestation.

[4] = test system: Spodoptera littoralis; experiment: Example B9: Spodoptera littoralis (Egyptian Cotton Leaf Worm), cotton leaf disc spray; conditions: foliar, 72 h, application rate of 200 ppm, sprayed cotton leaf discs, L1 larvae, 3 days after infestation, read-out: control in at least one of the three categories (mortality, anti-feedant or growth inhibition)
[5] = test system: Plutella xylostella; experiment: Example B12: Plutella xylostella (Diamondback Moth), 96-well artificial diet; conditions: 216 h, application rate of 500 ppm, eggs, 9 days after infestation
Protocol: Example B12: Plutella xylostella (Diamondback Moth)
96-well microtiter plates containing artificial diet were treated with aqueous test solutions, prepared from 10′000 ppm DMSO stock solutions, by a liquid handling robot. After drying, eggs (˜30 per well) were infested onto a netted lid which was suspended above the diet. The eggs hatch and L1 larvae move down to the diet. The samples were assessed for mortality 9 days after infestation.

[6] = test system: Euschistus heros; experiment: Example B2: Euschistus heros (Neotropical Brown Stink Bug); conditions: 120 h, application rate of 200 ppm, sprayed soybean leaves, N2 nymphs, 5 days after infestation, read-out: control in at least one of the two categories (mortality or growth inhibition)
Protocol: Example B2: Euschistus heros (Neotropical Brown Stink Bug)
Soybean leaves on agar in 24-well microtiter plates were sprayed with aqueous test solutions prepared from 10′000 ppm DMSO stock solutions. After drying the leaves were infested with N2 nymphs. The samples were assessed for mortality and growth inhibition in comparison to untreated samples 5 days after infestation.

CC(NC(=O)c1cc(C(F)(F)F)nc(C2(C#N)CC2)c1)c1nccnc1-c1ncc(C2CC2)cn1 (centres unmarked) [P36, 2-(1-cyanocyclopropyl)-N-[1-[3-(5-cyclopropylpyrimidin-2-yl)pyrazin-2-yl]ethyl]-6-(trifluoromethyl)pyridine-4-carboxamide]
≥ 80%: percent control (mortality or growth inhibition) at 200 ppm [1] | percent control (mortality, anti-feedant effect or growth inhibition) at 200 ppm [2] | percent control (mortality or growth inhibition) at 200 ppm [3] | percent control (mortality, anti-feedant effect or growth inhibition) at 200 ppm [4] | mortality at 500 ppm [5]

CC(NC(=O)c1cc(C(F)(F)F)cc(C2(C#N)CC2)c1)c1nccnc1-c1ccc(Br)cn1 (centres unmarked) [P24, N-[1-[3-(5-bromo-2-pyridyl)pyrazin-2-yl]ethyl]-3-(1-cyanocyclopropyl)-5-(trifluoromethyl)benzamide]
≥ 80%: percent control (mortality or growth inhibition) at 200 ppm [1] | percent control (mortality, anti-feedant effect or growth inhibition) at 200 ppm [2] | percent control (mortality or growth inhibition) at 200 ppm [3] | percent control (mortality, anti-feedant effect or growth inhibition) at 200 ppm [4] | mortality at 500 ppm [5]

CC(NC(=O)c1cc(C(F)(F)F)nc(C2(C#N)CC2)c1)c1nccnc1-c1ccc(Cl)cn1 (centres unmarked) [P16, N-[1-[3-(5-chloro-2-pyridyl)pyrazin-2-yl]ethyl]-2-(1-cyanocyclopropyl)-6-(trifluoromethyl)pyridine-4-carboxamide]
≥ 80%: percent control (mortality or growth inhibition) at 200 ppm [1] | percent control (mortality, anti-feedant effect or growth inhibition) at 200 ppm [2] | percent control (mortality or growth inhibition) at 200 ppm [3] | percent control (mortality, anti-feedant effect or growth inhibition) at 200 ppm [4] | mortality at 500 ppm [5]

CC(NC(=O)c1cc(C2CC2)cc(C(F)(F)F)c1)c1nccnc1-c1ccc(F)cn1 (centres unmarked) [P40, 3-cyclopropyl-N-[1-[3-(5-fluoro-2-pyridyl)pyrazin-2-yl]ethyl]-5-(trifluoromethyl)benzamide]
≥ 80%: percent control (mortality or growth inhibition) at 200 ppm [1] | percent control (mortality, anti-feedant effect or growth inhibition) at 200 ppm [2] | percent control (mortality or growth inhibition) at 200 ppm [3] | percent control (mortality, anti-feedant effect or growth inhibition) at 200 ppm [4] | mortality at 500 ppm [5]

CC(NC(=O)c1cc(C(F)(F)F)cc(C2(C#N)CC2)c1)c1nccnc1-c1ncc(C2CC2)cn1 (centres unmarked) [P3, 3-(1-cyanocyclopropyl)-N-[1-[3-(5-cyclopropylpyrimidin-2-yl)pyrazin-2-yl]ethyl]-5-(trifluoromethyl) benzamide]
≥ 80%: percent control (mortality or growth inhibition) at 200 ppm [6] | percent control (mortality, anti-feedant effect or growth inhibition) at 200 ppm [2] | percent control (mortality or growth inhibition) at 200 ppm [3] | percent control (mortality, anti-feedant effect or growth inhibition) at 200 ppm [4]

CC(NC(=O)c1cc(C2CC2)cc(C(F)(F)F)c1)c1nccnc1-c1ccc(Cl)cn1 (centres unmarked) [P18, N-[1-[3-(5-chloro-2-pyridyl)pyrazin-2-yl]ethyl]-3-cyclopropyl-5-(trifluoromethyl)benzamide]
≥ 80%: percent control (mortality, anti-feedant effect or growth inhibition) at 200 ppm [2] | percent control (mortality or growth inhibition) at 200 ppm [3] | mortality at 500 ppm [5]

Cc1cnc(-c2nccnc2C(C)NC(=O)c2cc(C(F)(F)F)nc(C3(C#N)CC3)c2)nc1 (centres unmarked) [P2, 2-(1-cyanocyclopropyl)-N-[1-[3-(5-methylpyrimidin-2-yl)pyrazin-2-yl]ethyl]-6-(trifluoromethyl)pyridine-4-carboxamide]
≥ 80%: percent control (mortality or growth inhibition) at 200 ppm [6] | percent control (mortality, anti-feedant effect or growth inhibition) at 200 ppm [2] | percent control (mortality or growth inhibition) at 200 ppm [3] | percent control (mortality, anti-feedant effect or growth inhibition) at 200 ppm [4]

CC(NC(=O)c1cc(C(F)(F)F)cc(C(F)(F)C2CC2)c1)c1nccnc1-c1ccccn1 (centres unmarked) [P20, 3-[cyclopropyl (difluoro)methyl]-N-[1-[3-(2-pyridyl)pyrazin-2-yl]ethyl]-5-(trifluoromethyl) benzamide]
≥ 80%: percent control (mortality or growth inhibition) at 200 ppm [1] | percent control (mortality, anti-feedant effect or growth inhibition) at 200 ppm [2] | percent control (mortality or growth inhibition) at 200 ppm [3] | percent control (mortality, anti-feedant effect or growth inhibition) at 200 ppm [4] | mortality at 500 ppm [5]

CC(NC(=O)c1cc(C(F)(F)F)cc(S(=O)(=O)C(F)(F)F)c1)c1nccnc1-c1ncc(C2CC2)cn1 (centres unmarked) [P11, N-[1-[3-(5-cyclopropylpyrimidin-2-yl)pyrazin-2-yl]ethyl]-3-(trifluoromethyl)-5-(trifluoromethylsulfonyl) benzamide]
≥ 80%: percent control (mortality, anti-feedant effect or growth inhibition) at 200 ppm [2] | percent control (mortality or growth inhibition) at 200 ppm [3] | percent control (mortality, anti-feedant effect or growth inhibition) at 200 ppm [4] | mortality at 500 ppm [5]

CC(NC(=O)c1cc(C2CC2)cc(C(F)(F)F)c1)c1nccnc1-c1ncc(OC(F)F)cn1 (centres unmarked) [P34, 3-cyclopropyl-N-[1-[3-[5-(difluoromethoxy)pyrimidin-2-yl]pyrazin-2-yl]ethyl]-5-(trifluoromethyl)benzamide]
≥ 80%: percent control (mortality or growth inhibition) at 200 ppm [1] | percent control (mortality, anti-feedant effect or growth inhibition) at 200 ppm [2] | percent control (mortality or growth inhibition) at 200 ppm [3] | percent control (mortality, anti-feedant effect or growth inhibition) at 200 ppm [4] | mortality at 500 ppm [5]

CC(NC(=O)c1cc(C(F)(F)F)nc(C2(C#N)CC2)c1)c1nccnc1-c1ccc(F)cn1 (centres unmarked) [P27, 2-(1-cyanocyclopropyl)-N-[1-[3-(5-fluoro-2-pyridyl)pyrazin-2-yl]ethyl]-6-(trifluoromethyl)pyridine-4-carboxamide]
≥ 80%: percent control (mortality, anti-feedant effect or growth inhibition) at 200 ppm [2] | percent control (mortality or growth inhibition) at 200 ppm [3] | mortality at 500 ppm [5]

CC(NC(=O)c1cc(C2CC2)cc(C(F)(F)F)c1)c1nccnc1-c1ccccn1 (centres unmarked) [P33, 3-cyclopropyl-N-[1-[3-(2-pyridyl)pyrazin-2-yl]ethyl]-5-(trifluoromethyl)benzamide]
≥ 80%: percent control (mortality or growth inhibition) at 200 ppm [1] | percent control (mortality, anti-feedant effect or growth inhibition) at 200 ppm [2] | percent control (mortality or growth inhibition) at 200 ppm [3] | mortality at 500 ppm [5]

CC(NC(=O)c1cc(C(F)(F)F)nc(C2(C#N)CC2)c1)c1nccnc1-c1ccc(Br)cn1 (centres unmarked) [P28, N-[1-[3-(5-bromo-2-pyridyl)pyrazin-2-yl]ethyl]-2-(1-cyanocyclopropyl)-6-(trifluoromethyl)pyridine-4-carboxamide]
≥ 80%: percent control (mortality or growth inhibition) at 200 ppm [1] | percent control (mortality, anti-feedant effect or growth inhibition) at 200 ppm [2] | percent control (mortality or growth inhibition) at 200 ppm [3] | percent control (mortality, anti-feedant effect or growth inhibition) at 200 ppm [4] | mortality at 500 ppm [5]

C[C@H](NC(=O)c1cc(C(F)(F)F)cc(C(F)(F)C2CC2)c1)c1nccnc1-c1ccc(Br)cn1 [P42, N-[(1S)-1-[3-(5-bromo-2-pyridyl)pyrazin-2-yl]ethyl]-3-[cyclopropyl(difluoro)methyl]-5-(trifluoromethyl)benzamide]
≥ 80%: percent control (mortality or growth inhibition) at 200 ppm [1] | percent control (mortality, anti-feedant effect or growth inhibition) at 200 ppm [2] | percent control (mortality or growth inhibition) at 200 ppm [3] | percent control (mortality, anti-feedant effect or growth inhibition) at 200 ppm [4] | mortality at 500 ppm [5]

CC(NC(=O)c1cc(C2CC2)cc(C(F)(F)F)c1)c1nccnc1-c1ncc(C2CC2)cn1 (centres unmarked) [P35, 3-cyclopropyl-N-[1-[3-(5-cyclopropylpyrimidin-2-yl)pyrazin-2-yl]ethyl]-5-(trifluoromethyl)benzamide]
≥ 80%: percent control (mortality or growth inhibition) at 200 ppm [1] | percent control (mortality, anti-feedant effect or growth inhibition) at 200 ppm [2] | percent control (mortality or growth inhibition) at 200 ppm [3] | percent control (mortality, anti-feedant effect or growth inhibition) at 200 ppm [4] | mortality at 500 ppm [5]

CC(NC(=O)c1cc(C(F)(F)F)cc(S(=O)(=O)C(F)(F)F)c1)c1nccnc1-c1ccccn1 (centres unmarked) [P13, N-[1-[3-(2-pyridyl)pyrazin-2-yl]ethyl]-3-(trifluoromethyl)-5-(trifluoromethylsulfonyl) benzamide]
≥ 80%: percent control (mortality or growth inhibition) at 200 ppm [1] | percent control (mortality, anti-feedant effect or growth inhibition) at 200 ppm [2] | percent control (mortality or growth inhibition) at 200 ppm [3] | percent control (mortality, anti-feedant effect or growth inhibition) at 200 ppm [4] | mortality at 500 ppm [5]

CC(NC(=O)c1cc(C(F)(F)F)cc(C2(C#N)CC2)c1)c1nccnc1-c1ccc(Cl)cn1 (centres unmarked) [P17, N-[1-[3-(5-chloro-2-pyridyl)pyrazin-2-yl]ethyl]-3-(1-cyanocyclopropyl)-5-(trifluoromethyl)benzamide]
≥ 80%: percent control (mortality or growth inhibition) at 200 ppm [1] | percent control (mortality, anti-feedant effect or growth inhibition) at 200 ppm [2] | percent control (mortality or growth inhibition) at 200 ppm [3] | percent control (mortality, anti-feedant effect or growth inhibition) at 200 ppm [4] | mortality at 500 ppm [5]

From patent US12527325B2, “Pesticidally active diazine-amide compounds” (SYNGENTA CROP PROTECTION AG, priority 2019, dated 2026)
